From patent publication US5439930A, “Biologically active n-acylprolydipeptides having antiamnestic, antihypoxic and anorexigenic effects” (Russian-American Institute for New Drug Development, priority 1992, dated 1995)
Where a SMILES comes first, the peptide text is derived from it. The star is where a group is joined. PhAc = O=C(Cc1ccccc1)*

How the values were obtained:
[1] = system: memory decline evoked by maximal electroshock (MES) in randomly bred male albino rats; assay: Passive avoidance step-through, amnesia by maximal electroshock (MES); format: in vivo
Procedure: (§1) Compounds according to the present invention, including the compounds described in Examples 1-11, were checked for their ability to prevent memory decline evoked by maximal electroshock (MES) or scopolamine in the passive avoidance step-through paradigm (equipment of Laffaette Co., USA). The experiments described herein (Examples 12, 13, 15, and 19) were carried out using randomly bred male albino rats of a weight of approximately 180-220 g. […] Amnesia was produced by transcorneal maximal electroshock immediately after learning or scopolamine (1 mg/kg, subcutaneously) administration 30 min. before learning. The retention was tested 24 hours later by the measurement of latency of the entering of the dark compartment.
(§2) The degree of antiamnestic activity was estimated according to Buttler's modified formula: [formula]
(§3) The higher the magnitude of this indicator the more is the antiamnestic activity.

outbred albino mice = assay: Hypobaric hypoxia survival (barometric chamber, 11,000 m); format: in vivo; details: 0.5 mg/kg 15 minutes before hypoxia, 1 hour exposition
Procedure: The protective effect of Compound I in hypoxia was assessed using the barometric chamber by "elevating" of the outbred albino mice (18-22 g) to the altitude of 11,000 m at a speed of 1000 m/min. After 1 hour exposition the percentage of surviving mice after 0.9% saline pretreatment was 15%.

lobectomized rats = assay: Passive avoidance after frontal lobectomy; format: in vivo; details: 9th day, 0.1 mg/kg for 9 days
Procedure: The impairment of learning and memory was achieved also by frontal lobectomy, which was performed after passive avoidance or active avoidance learning. Compound I (0.1 mg/kg) was administered beginning from the first post-operational day and lasting for 9 days. The testing was performed at 4th and 9th days. […] The frontal lobectomy has as a consequence the decrease of the latency of the entering of the dark compartment; Compound I restored the passive avoidance reaction (Table 8).

24-month Wistar rats [2] = assay: Passive avoidance retention in aged rats; format: in vivo
Procedure: (§4) The influence of Compound I on age-related mental decline was studied in experiments on 24-month Wistar rats. The substance was administered chronically in the dose of 0.1 mg/kg/day during 24 days, intraperitoneally before the testing and 14 days during testing.
Chronic administration of Compound I facilitated the retention tested 24 hours and especially 14 days after learning in passive avoidance test (Table 11). It is evident from these experiments that Compound I is able to improve amnestic function in the old rats.

24-month Wistar rats [3] = assay: Locomotor activity and habituation in aged rats (Optovarimex); format: in vivo
Procedure: as §4
Registration of the locomotor activity in the Optovarimex multichannel analyzer has shown that Compound I increased the initial horizontal activity being administered chronically. […] This test is suitable for the study of nootropics. In the control group the coefficient of the habituation was 0.29.

outbred male mice = assay: Gross behavior and acute toxicity; format: in vivo
Procedure: Compound I was checked for gross behavior and acute toxicity in outbred male mice (18-22 g).
In the dose of 1000 mg/kg compound I caused excitement in 50% of animals. In the dose of 5000 mg/kg i.p. compound I caused death in 50% of animals.

[4] = system: memory decline evoked by scopolamine in randomly bred male albino rats; assay: Passive avoidance step-through, amnesia by scopolamine; format: in vivo; details: 0.1 mg/kg 15 min before learning
Procedure: as §1, §2, §3

[5] = system: phenazepam withdrawn male albino rats; assay: Pentylenetetrazol kindling seizures during phenazepam withdrawal; format: in vivo
Procedure: The influence of Compound I on withdrawal syndrome caused by the interruption of chronic administration of benzodiazepine tranquilizer phenazepam (T. A. Voronina et al., In Fenazepam; A. V. Bogatsky, Ed.; Naukova dumka Publishers: Kiev, 1982; pp. 67-169) was studied in experiments on male albino rats weighing 190-200 g at the beginning and 300-350 g at the end of the experiment.
Phenazepam (2 mg/kg intraperitoneally) or saline (control group of rats) were given once daily for 57 days. The withdrawal syndrome occurred 24-72 hours after the last injection. The withdrawal syndrome in rats consisted in "anxiogenic-like" state aggressiveness and accelerated development of kindled seizures caused by pentylentetrazol. Compound I was administered to the withdrawn rats in doses of 0.5 mg/kg intraperitoneally 15 minutes prior to testing.
The seizure reactions of rats were studied using chemical kindling (C.R. Mason et al., Epilepsia, 13, 663-674 (1972); R. M. Post et al., Handbook of Biological Psychiatry, Part IV, No. 7, Marcel-Dekker (1981) pp. 609-651) produced by small doses of pentylene-tetrazol (35 mg/kg, intraperitoneally) administrated 24, 48 and 72 h after phenazepam withdrawal. The degree of seizures was evaluated by 4 points: tremor (1 point); jerk (2 point); clonic seizures (3 points); tonic seizures and death (4 points).
Our experiments pointed out that the pentylenetetrazol seizures were more pronounced in phenazepam withdrawn rats than in the control one. Compound I diminished the degree of kindling provoked by pentylenetetrazol (Table 14).

[6] = system: rat's offspring damaged by prenatal hypoxia; assay: Active avoidance learning of offspring after prenatal hypoxia; format: in vivo, rats
Procedure: The cognitive impairment in the rat's offspring was provoked by prenatal alcoholization or prenatal hypoxia. Prenatal alcoholization was achieved by peroral administration of 5 g/kg/day (25% solution) ethanol to pregnant female rats during whole pregnancy. To achieve prenatal hypoxia the rats on the 15th day of pregnancy were placed into hypobaric barometric chamber (the "elevating" up 8500 m altitude; exposition for 2 hours).
The treatment of the offspring was performed from 8th day to 20th day. Compound I was administered in the dose of 0.1 mg/kg/day subcutaneously. The testing was performed on two-month old rats.
It has been established that both kinds of damage (alcoholization, hypoxia) caused learning disorders in active avoidance test. Early postnatal administration of Compound I restored learning activity (Table 9).

CCOC(=O)CNC(=O)[C@@H]1CCCN1C(=O)Cc1ccccc1 [Compound I, N-phenacetyl-L-prolylglycine ethyl ester] (PhAc-Pro-Gly-OEt)
Latency (sec.) Amnesia + subst. ([1]; 0.1 mg/kg i.p. 15 min before training, MES after learning, retention 24 h later): 25 s | AA % (antiamnestic activity, Butler's modified formula) ([1]; 0.1 mg/kg i.p. 15 min before training, MES amnesia): 36% | Antiamnestic activity (Aa) ([1]; 0.1 mg/kg per os, MES amnesia): 19% | Antiamnestic activity (Aa) ([1]; 0.3 mg/kg per os, MES amnesia): 19% | Antiamnestic activity (Aa) ([1]; 0.4 mg/kg per os, MES amnesia): 23% | Antiamnestic activity (Aa) ([1]; 0.5 mg/kg per os, MES amnesia): 43% | Antiamnestic activity (Aa) ([1]; 0.7 mg/kg per os, MES amnesia): 52% | Antiamnestic activity (Aa) ([1]; 0.9 mg/kg per os, MES amnesia): 36% | Antiamnestic activity (Aa) ([1]; 1.0 mg/kg per os, MES amnesia): 10% | Antiamnestic activity (Aa) ([1]; 1.2 mg/kg per os, MES amnesia): 16% | Antiamnestic activity (Aa) ([1]; 1.5 mg/kg per os, MES amnesia): 10% | Percentage of surviving mice (outbred albino mice): 43.7% | Passive avoidance test (latency, sec) (lobectomized rats): 141.2 s | Passive avoidance test (latency, sec) (24-month Wistar rats [2]; 24 hours after learning): 128 s | Passive avoidance test (latency, sec) (24-month Wistar rats [2]; 14 days after learning): 132 s | Coefficient of habituation (ratio - 5th min/1st min) (24-month Wistar rats [3]; 0.1 mg/kg/day i.p. chronically): 0.03 | Locomotor activity (counts) (24-month Wistar rats [3]; 1st min. of registration, 0.1 mg/kg/day i.p. chronically): 422 counts | Locomotor activity (counts) (24-month Wistar rats [3]; 5th min. of registration): 13 counts | Stimulating effect of amphetamine (outbred male mice; 25 mg/kg): diminished the stimulating effect of amphetamine | Rectal temperature (outbred male mice; 1-10 mg/kg i.p.): did not change rectal temperature | Spontaneous motor activity (outbred male mice; 1-10 mg/kg i.p.): neither stimulated nor depressed the spontaneous motor activity | Stimulating effect of amphetamine on motor activity (outbred male mice; 1-10 mg/kg i.p.): did not enhance the stimulating effect of amphetamine | Excitement, % of animals (outbred male mice; 1000 mg/kg): 50% | Death, % of animals (outbred male mice; 5000 mg/kg i.p.): 50% | Lethality at 24 hours (outbred male mice; 500-3000 mg/kg i.p.): did not cause lethality | General condition (gross behavior) (outbred male mice; up to the dose of 500 mg/kg): did not disturb the general condition | Motor coordination (rota rod test) (outbred male mice; up to the dose of 500 mg/kg): did not change motor coordination | Aa (antiamnestic activity) ([4]; scopolamine 1 mg/kg s.c.): 55.5 | Latency (sec.) Scopolamine + substance ([4]; scopolamine 1 mg/kg s.c. 30 min before trial): 64.1 s | Seizure Reactions in Points (M ± m) ([5]; 24 h after phenazepam withdrawal, pentylenetetrazol 35 mg/kg i.p., 0.5 mg/kg i.p.): 0.25 ± 0.12 points | Seizure Reactions in Points (M ± m) ([5]; 48 h after phenazepam withdrawal): 0.87 ± 0.1 points | Seizure Reactions in Points (M ± m) ([5]; 72 h after phenazepam withdrawal): 0.5 ± 0.24 points | Rats with reflex of active avoidance ([6]; day 1 of learning, 0.1 mg/kg/day s.c. from 8th to 20th day): 0% | Rats with reflex of active avoidance ([6]; day 2 of learning): 0% | Rats with reflex of active avoidance ([6]; day 3 of learning): 25% | Rats with reflex of active avoidance ([6]; day 4 of learning): 68% | Rats with reflex of active avoidance ([6]; day 5 of learning): 88%
